Laboratory results as given in patent publication US10941157B2, “Pesticidal compositions and uses thereof” (Gilead Apollo, LLC, priority 2015, dated 2021).
Values after ≈ are worked out from the molar mass of the structure shown. Read-outs that look alike come from different tables or passages of the source.

Legend:
Type in all cases: cell-based
Botrtyis cinerea (Bc) = experiment: In vitro pathogen growth inhibition assay, Bc; conditions: 48 h
How it was run: (§1)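 Value reported is the compound concentration reaching ≥90% growth inhibition, from OD readings at 24 and 48 h after blank subtraction, confirmed visually. Inoculum was spores diluted in 17% V8 medium, except Rs, using 1.5 mm mycelial plugs in ¼ PDB; actual compound concentration corrected via OD600.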

[1] = tested on: Collectotrichum graminicola (Cg); experiment: In vitro pathogen growth inhibition assay, Cg; conditions: 48 h
How it was run: as §1

Diplodia maydis (Dm) = experiment: In vitro pathogen growth inhibition assay, Dm; conditions: Stenocarpella maydis, 48 h
How it was run: (§2)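 Spores in 17% V8 liquid medium, or 1.5 mm Rs mycelial plugs in ¼ PDB, incubated with compound; final concentration checked by OD600 for precipitation. OD readings at 24 and 48 h, blank-subtracted, plus visual ratings; value is concentration giving ≥90% growth inhibition.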

[2] = tested on: Fusarium moniliforme (Fm); experiment: In vitro pathogen growth inhibition assay, Fm; conditions: Fusarium verticillioides
How it was run: as §1

[3] = tested on: Fusarium virguliforme (Fv); experiment: In vitro pathogen growth inhibition assay, Fv
How it was run: as §2

[4] = tested on: Phytophthora capsici (Pc); experiment: In vitro pathogen growth inhibition assay, Pc; conditions: 48 h
How it was run: as §2

Rhizoctonia solani (Rs) = experiment: In vitro pathogen growth inhibition assay, Rs (mycelial plugs); conditions: Rhizoctonia solani, 48 h, mycelial plugs
How it was run: as §2

Septoria tritici (St) = experiment: In vitro pathogen growth inhibition assay, St; conditions: Zymoseptoria tritici, 48 h
How it was run: as §1

[5] = ≥90% inhibition, 48 hours vs 2% DMSO control, read-out: Compound Concentration (ppm) sufficient for ≥90% inhibition of growth, Bc
[6] = ≥90% inhibition, 48 hours vs 2% DMSO control, read-out: Compound Concentration (ppm) sufficient for ≥90% inhibition of growth, Cg
[7] = ≥90% inhibition, 48 hours vs 2% DMSO control, read-out: Compound Concentration (ppm) sufficient for ≥90% inhibition of growth, Dm
[8] = ≥90% inhibition, 48 hours vs 2% DMSO control, read-out: Compound Concentration (ppm) sufficient for ≥90% inhibition of growth, Fm
[9] = ≥90% inhibition, 48 hours vs 2% DMSO control, read-out: Compound Concentration (ppm) sufficient for ≥90% inhibition of growth, Fv
[10] = ≥90% inhibition, 48 hours vs 2% DMSO control, read-out: Compound Concentration (ppm) sufficient for ≥90% inhibition of growth, Pc
[11] = ≥90% inhibition, 48 hours vs 2% DMSO control, read-out: Compound Concentration (ppm) sufficient for ≥90% inhibition of growth, Rs
[12] = ≥90% inhibition, 48 hours vs 2% DMSO control, read-out: Compound Concentration (ppm) sufficient for ≥90% inhibition of growth, St
[13] = ≥90% growth inhibition, 48 hours, vs 2% DMSO control, read-out: Compound Concentration (ppm) sufficient for ≥90% inhibition of Bc
[14] = ≥90% growth inhibition, 48 hours, vs 2% DMSO control, read-out: Compound Concentration (ppm) sufficient for ≥90% inhibition of Cg
[15] = ≥90% growth inhibition, 48 hours, vs 2% DMSO control, read-out: Compound Concentration (ppm) sufficient for ≥90% inhibition of Dm
[16] = ≥90% growth inhibition, 48 hours, vs 2% DMSO control, read-out: Compound Concentration (ppm) sufficient for ≥90% inhibition of Fm
[17] = ≥90% growth inhibition, 48 hours, vs 2% DMSO control, read-out: Compound Concentration (ppm) sufficient for ≥90% inhibition of Fv
[18] = ≥90% growth inhibition, 48 hours, vs 2% DMSO control, read-out: Compound Concentration (ppm) sufficient for ≥90% inhibition of Pc
[19] = ≥90% growth inhibition, 48 hours, vs 2% DMSO control, read-out: Compound Concentration (ppm) sufficient for ≥90% inhibition of Rs
[20] = ≥90% growth inhibition, 48 hours, vs 2% DMSO control, read-out: Compound Concentration (ppm) sufficient for ≥90% inhibition of St

Row | Compound | IC90 (Botrtyis cinerea (Bc); [5]) [µg/mL] | IC90 [1, 6] [µg/mL] | IC90 (Diplodia maydis (Dm); [7]) [µg/mL] | IC90 [2, 8] [µg/mL] | IC90 [3, 9] [µg/mL] | IC90 [4, 10] [µg/mL] | IC90 (Rhizoctonia solani (Rs); [11]) [µg/mL] | IC90 (Septoria tritici (St); [12]) [µg/mL] | IC90 (Botrtyis cinerea (Bc); [13]) [µg/mL] | IC90 [1, 14] [µg/mL] | IC90 (Diplodia maydis (Dm); [15]) [µg/mL] | IC90 [2, 16] [µg/mL] | IC90 [3, 17] [µg/mL] | IC90 [4, 18] [µg/mL] | IC90 (Rhizoctonia solani (Rs); [19]) [µg/mL] | IC90 (Septoria tritici (St); [20]) [µg/mL]
1 | COc1ccc(F)cc1[C@H](Cn1c(=O)n(C(C)(C)C(=O)NC(C)C)c(=O)c2c(C)c(-n3cccn3)sc21)OCC(C)(C)O [Compound I-137] | 2 (≈ 3.25 µM) | 2 (≈ 3.25 µM) | ≥ 2 | 0.4 (≈ 0.65 µM) | ≥ 0.4 | ≥ 50 | ≥ 2 | ≥ 10 | – | – | – | – | – | – | – | –
2 | COc1ccccc1[C@H](Cn1c(=O)n(C(C)(C)C(=O)N2CCCC2)c(=O)c2c(C)c(-n3cccn3)sc21)OCC(C)C [Compound I-120] | 2 (≈ 3.37 µM) | 2 (≈ 3.37 µM) | 2 (≈ 3.37 µM) | 0.4 (≈ 0.674 µM) | 10 (≈ 16.8 µM) | > 50 | 2 (≈ 3.37 µM) | > 50 | – | – | – | – | – | – | – | –
3 | COc1ccc(F)cc1[C@H](Cn1c(=O)n([C@H](C)C(=O)NC(C)C)c(=O)c2c(C)c(-n3nccn3)sc21)OCCO [Compound I-097] | 0.4 (≈ 0.696 µM) | 50 (≈ 87 µM) | ≥ 2 | 0.08 (≈ 0.139 µM) | 2 (≈ 3.48 µM) | > 50 | 2 (≈ 3.48 µM) | > 50 | – | – | – | – | – | – | – | –
4 | COc1ccc(F)cc1[C@H](Cn1c(=O)n(C(C)(C)C(=O)N2CC(O)C2)c(=O)c2c(C)c(-n3nccn3)sc21)OC1CCOCC1 [Compound I-114] | 2 (≈ 3.11 µM) | 10 (≈ 15.6 µM) | 10 (≈ 15.6 µM) | 0.4 (≈ 0.622 µM) | 2 (≈ 3.11 µM) | > 50 | 10 (≈ 15.6 µM) | > 50 | – | – | – | – | – | – | – | –
5 | CCO[C@@H](Cn1c(=O)n(C(C)(C)C(=O)NC(C)C)c(=O)c2c(C)c(-n3nccn3)sc21)c1cc(F)ccc1OC [Compound I-054] | 0.4 (≈ 0.698 µM) | 0.4 (≈ 0.698 µM) | 0.4 (≈ 0.698 µM) | 0.08 (≈ 0.14 µM) | ≥ 0.08 | > 50 | 0.4 (≈ 0.698 µM) | 10 (≈ 17.5 µM) | – | – | – | – | – | – | – | –
6 | COc1ccc(F)cc1[C@H](Cn1c(=O)n(C(C)(C)C(=O)N2CCCCC2)c(=O)c2c(C)c(-n3nccn3)sc21)OC1CCOCC1 [Compound I-036] | 0.4 (≈ 0.611 µM) | 0.08 (≈ 0.122 µM) | ≥ 0.08 | 0.08 (≈ 0.122 µM) | 0.4 (≈ 0.611 µM) | > 50 | 0.08 (≈ 0.122 µM) | ≥ 2 | – | – | – | – | – | – | – | –
7 | Cc1c(-n2nccn2)sc2c1c(=O)n(C(C)(C)C(=O)NC(C)C)c(=O)n2C[C@H](OCCC#N)c1ccccc1O [Compound I-301] | – | – | – | – | – | – | – | – | 10 (≈ 17.7 µM) | > 50 | > 50 | 2 (≈ 3.54 µM) | ≥ 2 | > 50 | 10 (≈ 17.7 µM) | > 50
8 | COc1ccc(F)cc1[C@H](Cn1c(=O)n([C@@H](C)C(=O)NC(C)C)c(=O)c2c(C)c(-n3nccn3)sc21)OCCC#N [Compound I-197] | – | – | – | – | – | – | – | – | 0.4 (≈ 0.685 µM) | 10 (≈ 17.1 µM) | 10 (≈ 17.1 µM) | 0.4 (≈ 0.685 µM) | ≥ 2 | > 50 | 0.4 (≈ 0.685 µM) | ≥ 50
9 | COc1ccccc1[C@H](Cn1c(=O)n(C(C)(C)C(=O)N2CCCC2)c(=O)c2c(C)c(-n3cccn3)sc21)OC(C)C [Compound I-046] | 2 (≈ 3.45 µM) | 2 (≈ 3.45 µM) | 2 (≈ 3.45 µM) | 0.08 (≈ 0.138 µM) | 0.4 (≈ 0.69 µM) | > 50 | 0.4 (≈ 0.69 µM) | ≥ 50 | – | – | – | – | – | – | – | –
10 | COc1ccc(F)cc1[C@H](Cn1c(=O)n(C(C)(C)C(=O)O)c(=O)c2c(C)c(-n3nccn3)sc21)OC1CCC(=O)CC1 [Compound I-158] | 10 (≈ 16.7 µM) | > 50 | 50 (≈ 83.4 µM) | 2 (≈ 3.34 µM) | > 50 | 50 (≈ 83.4 µM) | 10 (≈ 16.7 µM) | > 50 | – | – | – | – | – | – | – | –
